What all share (assay): growth of human tumour cells (NCI), 48 h
Test [1] deals with KM12 colon.
Test [2] deals with HT29 colon.
The test system of test [3] is SF-539 CNS.
Test [4] relates to BT-549 breast.
Test [5] concerns SF-268 CNS.
For test [6], the system named is OVCAR-5 ovarian.
Test [7] concerns PC-3 prostate.
In test [8] the test system is HL-60(TB) leukemia.
The test system of test [9] is SK-MEL-5 melanoma.
Test [10] deals with MALME-3M melanoma.

Structures are written as SMILES.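 96-well plates; 48 h exposure; 5 concentrations. Endpoints by linear interpolation between flanking doses. Not reached: highest tested concentration assigned. Abbreviation: GI50, concentration required for 50% inhibition of growth. TGI: concentration producing complete growth inhibition.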

As for `Nc1nc(Cl)nc2c1ncn2C1OC(CO)C(O)C1F` (stereo not given), the GI50 is 1.8 µM in [1]; 0.445 µM in test [2]; 2.07 µM in [3]; 0.664 µM in [4]; 0.223 µM in test [5]; 5.68 µM in test [6]. Moreover, the GI50 is 99.7 µM in [7], 308 nM in test [8], 168 nM in [9] and 195 nM in [10]. Moreover, the TGI was more than 100 µM in test [1]; more than 100 µM in test [2]; 7.48 µM in test [3]; more than 37.6 µM in test [4]; 21.3 µM in test [5]; more than 100 µM in test [6]. For the same compound, the TGI in [7] is more than 100 µM; in test [8] it was more than 100 µM; in test [9], more than 8.7 µM; in [10], more than 46.2 µM.
Regarding `FC(F)c1ncc(-c2ccc(C(F)(F)F)cc2)c(NC2CCCCCC2)n1`, the GI50 in test [1], in test [2], in test [3], in [4], in test [5] and in [6] was more than 10 µM each time. Besides, the GI50 was more than 10 µM in test [7], more than 10000 nM in [8], more than 10000 nM in [9] and more than 10000 nM in test [10]. Moreover, the TGI in test [1], in test [2], in test [3], in test [4], in test [5] and in test [6] was more than 10 µM each time. The TGI in [7], in [8], in test [9] and in test [10] was more than 10 µM throughout.
For the compound `CCc1ccc2oc(=O)ccc2c1`, the TGI in test [1], in [2], in test [3], in [4], in test [5] and in [6] was more than 100 µM in each case. The TGI in test [7], in test [8], in test [9] and in test [10] was more than 100 µM in each case.
On to `Cc1cc(=O)[nH]c(N/N=C/c2ccccc2O)n1`, for which the GI50 is 18.4 µM in [1]; 5.72 µM in [2]; 7.06 µM in test [3]; 25.3 µM in [4]; 7.75 µM in test [5]; 7.42 µM in test [6]. Also, the GI50 in test [7] was 4.95 µM; in [8], 4260 nM; in test [9] it was 4190 nM; in [10], 4490 nM. Moreover, the TGI in test [1], in test [2], in test [3], in [4], in test [5] and in test [6] was more than 100 µM throughout. For the same compound, the TGI is more than 100 µM in test [7], 50.1 µM in test [8], 19.1 µM in test [9] and more than 100 µM in test [10].
As to `CC12CCC(=O)C(O1)C1C(=O)c3ccc4c(ccc5ccccc54)c3C(=O)C12` (stereo not given), the GI50 is 4.99 µM in [1]; 13.2 µM in test [2]; 18.8 µM in test [3]; 6.69 µM in test [4]; 15.3 µM in test [5]; 6.64 µM in test [6]. The GI50 in test [7] was 4.36 µM; in test [8], 1660 nM; in [9] it was 1630 nM; in test [10] it was 945 nM. Also, the TGI is 9.66 µM in [1]; more than 100 µM in test [2]; 45.3 µM in test [3]; 13.2 µM in test [4]; 36.1 µM in test [5]; 11.4 µM in test [6]. For the same compound, the TGI is 10.7 µM in test [7], 7.21 µM in [8], 3.3 µM in [9] and 4.4 µM in [10].
For the compound `CN1CCN(CCCOc2ccc3nc(Nc4ccc(F)c(F)c4)ccc3c2)CC1`, the GI50 is 1.89 µM in test [1]; 0.822 µM in [2]; 1.8 µM in test [3]; 2.34 µM in [4]; 2.45 µM in test [5]; 2.26 µM in test [6]. Further, the GI50 is 1.72 µM in test [7], 1260 nM in [8], 1470 nM in [9] and 1150 nM in test [10]. The TGI amounted to 4.16 µM in [1]; 2.32 µM in [2]; 3.73 µM in test [3]; 9.86 µM in test [4]; 8.31 µM in test [5]; 5.62 µM in test [6]. Moreover, the TGI in test [7] is 3.72 µM; in [8], 4.2 µM; in test [9], 2.88 µM; in [10], 3.06 µM.
Take `Cc1nc(NS(=O)(=O)c2ccc(NCN3C(=O)c4ccccc4C3=O)cc2)oc1C`: the GI50 in test [1], in test [2], in test [3], in test [4], in test [5] and in test [6] was more than 100 µM each time. Moreover, the GI50 in test [7] was more than 100 µM; in test [8], more than 100000 nM; in test [9] it was more than 100000 nM; in test [10] it was more than 100000 nM. The TGI in test [1], in test [2], in test [3], in test [4], in test [5] and in test [6] was more than 100 µM each time. Further, the TGI in test [7], in test [8], in [9] and in test [10] was more than 100 µM throughout.
In the case of `Fc1ccc2c(c1)C1=C(CCC2)C(c2ccc(Cl)cc2)NC(=S)N1` (stereo not given), the GI50 was 32.3 µM in [1]; 49.9 µM in [2]; 37.6 µM in test [3]; more than 100 µM in [4]; 83.8 µM in test [5]; more than 100 µM in test [6]. Besides, the GI50 in test [7] is 17.6 µM; in [8], 7510 nM; in test [9], 28400 nM; in [10] it was 22600 nM. Also, the TGI in test [1], in test [2], in [3], in test [4], in test [5] and in test [6] was more than 100 µM throughout. The TGI in test [7] is more than 100 µM; in test [8], more than 100 µM; in test [9] it was more than 100 µM; in [10], 80.2 µM.

Values taken from PubChem BioAssay (NCI).
